US20040142933A1, “Oxindole substituted piperazine derivatives” (priority 2002, published 2004)

What was measured:
dopamine D2 receptor = target: T1, dopamine D2 receptor (Homo sapiens, UniProt P14416); test: Dopamine D2 receptor binding, [3H]spiperone, CHO-hD2L cell membranes; settings: [3H]spiperone 0.4 nM
T1 construct: expressed in transfected cells; host or cells: CHO cells (CHO-hD2L)
Text: (§1) The ability of the compounds of this invention to bind to the dopamine D2 and serotonin 2A (5HT2A) receptors can be determined using conventional radioligand receptor binding assays. All receptors can be heterologously expressed in cell lines and experiments conducted in membrane preparations from the cell lines using procedures outlined below. IC50 concentrations can be determined by nonlinear regression of concentration-dependent reduction in specific binding. The Cheng-Prussoff equation can be used to convert the IC50 to Ki concentrations.
Dopamine D2 Receptor Binding:
[^3H]Spiperone binding to a membrane preparation from CHO-hD2L cells is carried out in 250 μl of 50 mM Tris-HCl buffer containing 100 mM NaCl, 1 mM MgCl2 and 1% DMSO at pH 7.4. Duplicate samples containing (in order of addition) the test compounds, 0.4 nM [^3H]spiperone and approximately 12 μg protein are incubated for 120 minutes at room temperature. Bound radioligand is separated by rapid filtration under reduced pressure through Whatman GF/B glass fiber filters previously treated with 0.3% polyethyleneimine. Radioactivity retained on the filter is determined by liquid scintillation spectrophotometry.
The title compounds of Examples 1-14 were tested using the above assay, in which specific binding determined in the presence of 1 mM haloperidol was 95%.

[1] = target: T2, serotonin 2A (5HT2A) receptor (Homo sapiens, UniProt P28223); test: Serotonin 2A binding, [3H]ketanserin, Swiss-h5HT2A cell membranes; settings: [3H]ketanserin 1.0 nM
T2 construct: expressed in transfected cells; host or cells: Swiss cells (Swiss-h5HT2A)
T2 sequence (P28223 whole entry): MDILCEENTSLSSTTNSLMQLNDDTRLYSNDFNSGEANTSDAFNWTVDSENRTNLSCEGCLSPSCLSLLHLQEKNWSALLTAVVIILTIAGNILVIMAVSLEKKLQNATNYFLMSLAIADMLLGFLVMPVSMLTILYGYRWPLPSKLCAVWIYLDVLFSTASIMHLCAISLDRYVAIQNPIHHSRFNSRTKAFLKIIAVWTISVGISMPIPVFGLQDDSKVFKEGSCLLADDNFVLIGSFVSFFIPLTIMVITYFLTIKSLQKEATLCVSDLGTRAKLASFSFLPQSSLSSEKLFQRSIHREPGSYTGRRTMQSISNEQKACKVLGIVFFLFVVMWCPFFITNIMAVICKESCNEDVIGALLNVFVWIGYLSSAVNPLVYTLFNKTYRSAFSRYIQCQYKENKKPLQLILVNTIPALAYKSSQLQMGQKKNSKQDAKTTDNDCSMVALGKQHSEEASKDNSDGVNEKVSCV
Text: as §1
[^3H] Ketanserin binding to Swiss-h5HT2A cell membranes can be carried out in 250 μl of 50 mM Tris-HCl buffer pH 7.4. Duplicate samples containing (in order of addition) test compounds, 1.0 nM [^3H]ketanserin, and approximately 75 μg protein are incubated for 120 minutes at room temperature. Bound radioligand is separated by rapid filtration under reduced pressure through Whatman GF/B glass fiber filters previously treated with 0.3% polyethyleneimine. Radioactivity retained on the filter is determined by liquid scintillation spectrophotometry.
The title compounds of Examples 1-14 were tested using the above assay, in which specific binding determined in the presence of 1 mM ketanserin was 90%.

T1 sequence (P14416 whole entry): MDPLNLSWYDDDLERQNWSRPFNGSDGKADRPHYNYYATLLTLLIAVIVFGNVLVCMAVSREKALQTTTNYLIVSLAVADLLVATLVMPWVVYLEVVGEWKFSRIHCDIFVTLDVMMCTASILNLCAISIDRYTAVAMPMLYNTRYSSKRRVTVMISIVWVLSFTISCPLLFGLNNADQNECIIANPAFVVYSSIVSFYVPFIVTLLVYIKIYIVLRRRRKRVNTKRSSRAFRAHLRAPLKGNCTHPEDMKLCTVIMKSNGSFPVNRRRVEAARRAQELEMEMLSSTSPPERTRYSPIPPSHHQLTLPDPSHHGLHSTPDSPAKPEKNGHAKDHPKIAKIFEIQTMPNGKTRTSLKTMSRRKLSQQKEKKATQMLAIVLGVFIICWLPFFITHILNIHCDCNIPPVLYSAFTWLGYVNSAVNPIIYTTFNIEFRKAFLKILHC

Row | Ki (dopamine D2 receptor) | Ki [1] | SMILES
1 | 14.7 nM | 0.75 nM | CC(C)=C1C(=O)N(C)c2ccc(CCN3CCN(c4nsc5ccccc45)CC3)cc21 [Example 1, 5-[2-(4-1,2-benzisothiazol-3-yl-piperazin-1-yl)-ethyl]-3-isopropylidene-1-methyl-1,3-dihydro-indol-2-one]
2 | 49.4 nM |  | CC(C)=C1C(=O)Nc2ccc(CCCN3CCN(c4noc5ccccc45)CC3)cc21 [Example 4, 5-[3-(4-1,2-Benzisoxazol-3-yl-piperazin-1-yl)-propyl]-3-isopropylidene-1,3-dihydro-indol-2-one]
3 | 1.3 nM | 8.4 nM | CC(C)=C1C(=O)Nc2cc(Cl)c(CCN3CCN(c4nsc5ccccc45)CC3)cc21 [Example 5, 5-[2-(4-1,2-benzisothiazol-3-yl-piperazin-1-yl)-ethyl]-6-chloro-3-isopropylidene-1,3-dihydro-indol-2-one]
4 |  | 7.45 nM | CC1(C)CC12C(=O)Nc1cc(Cl)c(CCCN3CCN(c4nsc5ccccc45)CC3)cc12 (stereo not drawn) [Example 14, Spiro[cyclopropane-1,3′-{3H}indol]-2′(1′H)-one,5′-[3-[4-{1,2-benzisothiazol-3-yl}-1-piperazinyl]propyl]-6′-chloro-2,2-dimethyl—]
